According to US20140357512A1, “HISTONE DEACETYLASE (HDAC) BIOMARKERS IN MULTIPLE MYELOMA” (priority 2013, published 2014):

System: human myeloma cell line MM.1S
Assay: CNP analysis: acetylated peptides in cytoplasm (C), soluble nuclear extract (N), insoluble nuclear pellet (P) of Compound B treated cells
Assay type: cell-based
Details: for change in quantity of acetylated peptide, C / fold change in quantity of acetylated peptide, C: cytoplasm (C), normalized to total (C+N+P); for C: change in quantity of acetylated peptide normalized to total (C+N+P) / C: fold change in quantity of acetylated peptide normalized to total (C+N+P): cytoplasm fraction; for P: change in quantity of acetylated peptide normalized to total (C+N+P) / P: fold change in quantity of acetylated peptide normalized to total (C+N+P): insoluble nuclear pellet; for N: change in quantity of acetylated peptide normalized to total (C+N+P) / N: fold change in quantity of acetylated peptide normalized to total (C+N+P): soluble nuclear extract
Description: This example describes the CNP analysis that was performed on Compound B treated cells from Example 1.
The SILAC method was performed as described in Example 1.
The harvested “heavy” and “light” labeled cells were initially lysed with 2×NETN buffer (200 mM NaCl, 100 mM Tris-Cl, 2 mM EDTA, 1.0% NP-40, pH 7.2) on ice for 15 min, respectively. The supernatants were saved after 20,000×g centrifugation for 10 minutes at 4° C. After measurement of the protein concentration in “heavy” or “light” labeled supernatants, equal amounts of crude proteins in supernatant were mixed, and the crude proteins were precipitated by adding trifluoroacetic acid (TFA) with 15% final concentration (v/v) (this was called the cytosolic fraction). After washing twice with −20° C. acetone, the proteins pellets were dissolved in 100 mM NH4HCO3 (pH 8.0) for trypsin digestion.
The remaining cell pellets were further lysed with 1×ETN buffer (100 mM NaCl, 50 mM Tris-Cl, 1 mM EDTA, pH 7.2) supplemented with 0.5% Triton X-100 on ice for 15 min, respectively. The resulting lysates were clarified by 20,000×g centrifugation for 10 minutes, and the supernatant was saved as nuclear extracts fractions. After measurement of the protein concentration in “heavy” or “light” labeled supernatant, equal amount of crude proteins in supernatant were mixed, and the crude proteins were precipitated by adding trifluoroacetic acid (TFA) with 15% final concentration (v/v) (this was called the nuclear extracts fraction). After washing twice with −20° C. acetone, the proteins pellets were dissolved in 100 mM NH4HCO3 (pH 8.0) for trypsin digestion.
The final remaining cell pellets were dissolved in 8 M urea to extract the chromatin-binding proteins. After measurement of protein concentration, equal amount of chromatin-binding proteins in urea solution were mixed, and the proteins were precipitated by adding trifluoroacetic acid (TFA) with 15% final concentration (v/v) (this was called the nuclear pellet fraction). After washing twice with −20° C. acetone, the proteins pellets were dissolved in 100 mM NH4HCO3 for trypsin digestion.
After trypsin digestion for the above three fractions, the Kac affinity enrichment followed by MS analysis and data inquiry were separately performed. The combined Kac data formed the total Kac profiling data in the pair of Compound B vs DMSO.
Compound B treated cell lysate was fractionated into three subcellular fractions—cytoplasm (C), soluble nuclear extract (N), and insoluble nuclear pellet (P), as described above. Any peptides identified as HDAC6 specific in Example 1 with this subcellular localization information was extremely helpful for understanding their functions inside cells.
The third, fourth, and fifth columns of Table 2 show data for Compound B. A “+” indicates a 1.3 fold change or greater in the quantity of peptide when normalized to the total (C+N+P=total) for each peptide for each drug treated group of cells. A “−” indicates a 1.29 fold change or less in the quantity of peptide when normalized to the total (C+N+P=total) for each peptide for each drug treated group of cells. “None” indicates unknown.
The sixth, seventh, and eighth columns of Table 2 show data for Compound B. The numbers in these columns represent the fold change in the quantity of peptide when normalized to the total (C+N+P=total) for each peptide for each drug treated group of cells. The numbers are in a log 2 scale so 1 represents a 2× change, 0 represents no change, and None represents unknown.

[1] = peptide AVLIDK(ac)DQSPK (SEQ ID NO: 577), gene HIBCH
[2] = peptide CSK(ac)LPSSTK(ac)SGWPR (SEQ ID NO: 711), gene PHF15
[3] = peptide DFGSFDK(ac)FK (SEQ ID NO: 709), gene SOD2
[4] = peptide INKALDK(ac)TK (SEQ ID NO: 802), gene MYH9
[5] = peptide K(ac)AINK(ac)AQK (SEQ ID NO: 793), gene HIST1H2BM
[6] = peptide KGEDFVK(ac)TLK (SEQ ID NO: 750), gene MDH2
[7] = peptide LENDK(ac)SFR (SEQ ID NO: 678), gene ECI1
[8] = peptide SELTGK(ac)FEK (SEQ ID NO: 778), gene ANXA5

With `O=C(NO)c1cnc(NC2(c3cccc(F)c3)CCCCC2)nc1` [Compound B, 2-((1-(3-fluorophenyl)cyclohexyl)amino)-N-hydroxypyrimidine-5-carboxamide] the “change in quantity of acetylated peptide, C” value [1] was “− (A “−” indicates a 1.29 fold change or less in the quantity of peptide when normalized to the total (C+N+P=total))”, the “fold change in quantity of acetylated peptide, C” value [1] was 0.00 log 2 and the “change in quantity of acetylated peptide, C” value (peptide FYK(ac)DVLEVGELAK (SEQ ID NO: 596), gene NAA50) was “− (A “−” indicates a 1.29 fold change or less in the quantity of peptide when normalized to the total (C+N+P=total))”. For the same compound, the “fold change in quantity of acetylated peptide, C” value (peptide FYK(ac)[…] (SEQ ID NO: 596), gene NAA50) was 0.12 log 2, the “fold change in quantity of acetylated peptide, C” value (peptide NCSSFLIK(ac)R (SEQ ID NO: 558), gene RPL28) was 0.05 log 2 and the “change in quantity of acetylated peptide, C” value (peptide VTCIDPNPNFEK(ac)FLIK (SEQ ID NO: 671), gene METTL7A) was “+ (A “+” indicates a 1.3 fold change or greater in the quantity of peptide when normalized to the total (C+N+P=total))”. For the same compound, the “fold change in quantity of acetylated peptide, C” value (peptide […](ac)FLIK (SEQ ID NO: 671), gene METTL7A) was 0.44 log 2, the “fold change in quantity of acetylated peptide, C” value (peptide […](ac)QNK (SEQ ID NO: 650), gene DLD) was 0.18 log 2 and the “C: change in quantity of acetylated peptide normalized to total (C+N+P)” value [2] was “− (A “−” indicates a 1.29 fold change or less in the quantity of peptide when normalized to the total (C+N+P=total))”. For the same compound, the “C: fold change in quantity of acetylated peptide normalized to total (C+N+P)” value [2] was 0.11 log 2 scale, the “P: change in quantity of acetylated peptide normalized to total (C+N+P)” value [2] was “+ (A “+” indicates a 1.3 fold change or greater in the quantity of peptide when normalized to the total (C+N+P=total))” and the “P: fold change in quantity of acetylated peptide normalized to total (C+N+P)” value [2] was 0.43 log 2 scale. The “N: change in quantity of acetylated peptide normalized to total (C+N+P)” value [2] was “− (A “−” indicates a 1.29 fold change or less in the quantity of peptide when normalized to the total (C+N+P=total))”, the “N: fold change in quantity of acetylated peptide normalized to total (C+N+P)” value [2] was 0.04 log 2 scale and the “C: change in quantity of acetylated peptide normalized to total (C+N+P)” value [3] was “− (A “−” indicates a 1.29 fold change or less in the quantity of peptide when normalized to the total (C+N+P=total))”. For the same compound, the “C: fold change in quantity of acetylated peptide normalized to total (C+N+P)” value [3] was −0.28 log 2 scale, the “P: change in quantity of acetylated peptide normalized to total (C+N+P)” value [3] was “− (A “−” indicates a 1.29 fold change or less in the quantity of peptide when normalized to the total (C+N+P=total))” and the “N: change in quantity of acetylated peptide normalized to total (C+N+P)” value [3] was “+ (A “+” indicates a 1.3 fold change or greater in the quantity of peptide when normalized to the total (C+N+P=total))”. For the same compound, the “N: fold change in quantity of acetylated peptide normalized to total (C+N+P)” value [3] was −0.48 log 2 scale, the “C: change in quantity of acetylated peptide normalized to total (C+N+P)” value [4] was “− (A “−” indicates a 1.29 fold change or less in the quantity of peptide when normalized to the total (C+N+P=total))” and the “P: change in quantity of acetylated peptide normalized to total (C+N+P)” value [4] was “− (A “−” indicates a 1.29 fold change or less in the quantity of peptide when normalized to the total (C+N+P=total))”. The “N: change in quantity of acetylated peptide normalized to total (C+N+P)” value [4] was “+ (A “+” indicates a 1.3 fold change or greater in the quantity of peptide when normalized to the total (C+N+P=total))”, the “N: fold change in quantity of acetylated peptide normalized to total (C+N+P)” value [4] was 4.75 log 2 scale and the “C: change in quantity of acetylated peptide normalized to total (C+N+P)” value [5] was “− (A “−” indicates a 1.29 fold change or less in the quantity of peptide when normalized to the total (C+N+P=total))”. The “P: change in quantity of acetylated peptide normalized to total (C+N+P)” value [5] was “− (A “−” indicates a 1.29 fold change or less in the quantity of peptide when normalized to the total (C+N+P=total))”, the “P: fold change in quantity of acetylated peptide normalized to total (C+N+P)” value [5] was 0.27 log 2 scale and the “N: change in quantity of acetylated peptide normalized to total (C+N+P)” value [5] was “+ (A “+” indicates a 1.3 fold change or greater in the quantity of peptide when normalized to the total (C+N+P=total))”. The “N: fold change in quantity of acetylated peptide normalized to total (C+N+P)” value [5] was −0.97 log 2 scale, the “C: change in quantity of acetylated peptide normalized to total (C+N+P)” value [6] was “− (A “−” indicates a 1.29 fold change or less in the quantity of peptide when normalized to the total (C+N+P=total))” and the “C: fold change in quantity of acetylated peptide normalized to total (C+N+P)” value [6] was 0.15 log 2 scale. For the same compound, the “P: change in quantity of acetylated peptide normalized to total (C+N+P)” value [6] was “− (A “−” indicates a 1.29 fold change or less in the quantity of peptide when normalized to the total (C+N+P=total))”, the “N: change in quantity of acetylated peptide normalized to total (C+N+P)” value [6] was “+ (A “+” indicates a 1.3 fold change or greater in the quantity of peptide when normalized to the total (C+N+P=total))” and the “N: fold change in quantity of acetylated peptide normalized to total (C+N+P)” value [6] was 0.49 log 2 scale. The “C: change in quantity of acetylated peptide normalized to total (C+N+P)” value [7] was “− (A “−” indicates a 1.29 fold change or less in the quantity of peptide when normalized to the total (C+N+P=total))”, the “C: fold change in quantity of acetylated peptide normalized to total (C+N+P)” value [7] was 0.12 log 2 scale and the “P: change in quantity of acetylated peptide normalized to total (C+N+P)” value [7] was “− (A “−” indicates a 1.29 fold change or less in the quantity of peptide when normalized to the total (C+N+P=total))”. The “N: change in quantity of acetylated peptide normalized to total (C+N+P)” value [7] was “+ (A “+” indicates a 1.3 fold change or greater in the quantity of peptide when normalized to the total (C+N+P=total))”, the “N: fold change in quantity of acetylated peptide normalized to total (C+N+P)” value [7] was −0.38 log 2 scale and the “C: change in quantity of acetylated peptide normalized to total (C+N+P)” value [8] was “− (A “−” indicates a 1.29 fold change or less in the quantity of peptide when normalized to the total (C+N+P=total))”. For the same compound, the “C: fold change in quantity of acetylated peptide normalized to total (C+N+P)” value [8] was 0.31 log 2 scale, the “P: change in quantity of acetylated peptide normalized to total (C+N+P)” value [8] was “− (A “−” indicates a 1.29 fold change or less in the quantity of peptide when normalized to the total (C+N+P=total))” and the “N: change in quantity of acetylated peptide normalized to total (C+N+P)” value [8] was “+ (A “+” indicates a 1.3 fold change or greater in the quantity of peptide when normalized to the total (C+N+P=total))”. The “N: fold change in quantity of acetylated peptide normalized to total (C+N+P)” value [8] was 0.40 log 2 scale.
